# Source: paper PMC7407158, “Reprogramming of the Antibacterial Drug Vancomycin Results in Potent Antiviral Agents Devoid of Antibacterial Activity” (Pharmaceuticals, 2020)
# Assays:
# [1] = tested on: Zika virus (strain MR766); assay: CPE reduction, MTS assay, Zika virus in Vero cells; format: cell-based; details: protection against virus-induced CPE, read-out: Antiviral EC50 Zika Virus
# [2] = tested on: yellow fever virus (vaccine strain 17D); assay: microbe, parasite or virus in culture; format: cell-based; details: Vero, read-out: Antiviral EC50 Yellow Fever Virus
# in vitro [3] = details: human
# in vitro [4] = details: human; remark: listed apart in the source
# in vitro [5] = details: African green monkey
# [6] = tested on: respiratory syncytial virus (RSV, strain Long); assay: CPE reduction, MTS assay, RSV in HeLa cells; format: cell-based; details: human respiratory syncytial virus, read-out: Antiviral EC50 RSV
# [7] = tested on: Influenza A/H3N2 (A/Victoria/361/11); assay: Influenza CPE reduction in MDCK cells, MTS assay, A/H3N2; format: cell-based; details: Influenza A virus, H3N2, MDCK, read-out: Antiviral EC50 Influenza A/H3N2
# [8] = tested on: Influenza A/H1N1 (A/Ned/378/05); assay: Influenza CPE reduction in MDCK cells, MTS assay, A/H1N1; format: cell-based; details: Influenza A virus, H1N1, MDCK, read-out: Antiviral EC50 Influenza A/H1N1
# [9] = tested on: Influenza B (B/Ned/537/05); assay: Influenza CPE reduction in MDCK cells, MTS assay, influenza B; format: cell-based; details: Influenza B virus, inhibition of virus-induced CPE by MTS assay, read-out: Antiviral EC50 Influenza B
# S. epidermidis mecA = assay: Broth microdilution MIC, S. epidermidis mecA; format: cell-based; details: Staphylococcus epidermidis, read-out: In Vitro MIC
# Method: (§1) Antibacterial tests were carried out by the broth microdilution method on a panel of eight Gram-positive bacterial strains, using vancomycin and teicoplanin as reference compounds.
# [10] = tested on: S. epidermidis ATCC 35984; assay: Broth microdilution MIC, S. epidermidis ATCC 35984; format: cell-based; details: Staphylococcus epidermidis, ATCC35984; S. epidermidis ATCC 35984; broth microdilution; read-out: In Vitro MIC
# Method: as §1
# [11] = tested on: S. aureus MSSA ATCC 29213; assay: Broth microdilution MIC, S. aureus MSSA ATCC 29213; format: cell-based; details: Staphylococcus aureus; S. aureus MSSA ATCC 29213; broth microdilution; read-out: In Vitro MIC
# Method: as §1
# human coronavirus 229E [12] = format: cell-based; details: 25 µM compound (non-toxic concentration); HEL cells
# [13] = tested on: E. faecalis ATCC 51,299 VanB; assay: Broth microdilution MIC, E. faecalis ATCC 51,299 VanB; format: cell-based; details: Enterococcus faecalis, ATCC51, read-out: In Vitro MIC
# Method: as §1
# MDCK cells = details: read-out: CC50 (50% cytotoxic concentration), mock-infected, MTS cell viability assay, three days
# B. subtilis ATCC 6633 = assay: Broth microdilution MIC, B. subtilis ATCC 6633; format: cell-based; details: Bacillus subtilis, ATCC6633; B. subtilis ATCC 6633; broth microdilution; read-out: In Vitro MIC
# Method: as §1
# E. faecalis ATCC 29212 = assay: Broth microdilution MIC, E. faecalis ATCC 29212; format: cell-based; details: Enterococcus faecalis, ATCC29212; E. faecalis ATCC 29212; broth microdilution; read-out: In Vitro MIC
# Method: as §1
# [14] = tested on: HeLa, human cervix carcinoma cells; details: read-out: CC50 HeLa; mock-infected HeLa cells, MTS assay
# human coronavirus 229E [15] = assay: Coronavirus 229E virus yield reduction, RT-qPCR of viral RNA in supernatant, HEL cells; format: cell-based; details: day 4 p.i.
# Method: To assess inhibition of human coronavirus 229E replication, HEL cells were infected and treated with 1:2 serial compound dilutions. The plate contained three virus controls (receiving no compound) and two cell controls (receiving no virus and no compound). At day 4 p.i., supernatants were frozen at −80 °C to determine the virus yield by one-step RT-qPCR assay. Two microliters supernatant was mixed with 11 µl lysis mix containing lysis enhancer and resuspension buffer at a 1:10 ratio (CellsDirect One-Step RT-qPCR kit; Invitrogen), and heated for 10 min at 75 °C. Five microliters of lysate was transferred to a PCR plate containing 9.75 µl RT-qPCR mix (CellsDirect One-Step RT-qPCR) and 0.25 µl Superscript III RT/Platinum Taq enzyme, and coronavirus-229E N-gene specific primers and probe (forward primer 5′-[…] -3′; reverse primer 5′-[…] -3′; probe 5′-FAM-[…]-ZEN-[…] -IBFQ-3′). The RT-qPCR program consisted of 15 min at 50 °C, 2 min at 95 °C, and 50 cycles of 15 s at 95 °C and 45 s at 60 °C. An N-gene plasmid standard was included for absolute quantification.
# E. faecalis 15,376 VanA = assay: Broth microdilution MIC, E. faecalis 15,376 VanA; format: cell-based; details: Enterococcus faecalis, read-out: In Vitro MIC
# Method: as §1
# [16] = tested on: S. aureus MRSA ATCC 33591; assay: Broth microdilution MIC, S. aureus MRSA ATCC 33591; format: cell-based; details: Staphylococcus aureus, read-out: In Vitro MIC
# Method: as §1
# [17] = tested on: HEL, human embryonic lung fibroblast cells; details: read-out: CC50 HEL; mock-infected HEL cells, MTS assay
# A/PR/8/34 virus = format: cell-based, Influenza A virus
# [18] = tested on: Vero, African Green monkey kidney cells; details: read-out: CC50 Vero; mock-infected Vero cells, MTS assay
# influenza A or B viruses = assay: Anti-influenza virus activity in MDCK cells, MTS assay, overall for the three influenza A or B viruses; format: cell-based, Influenza A and B viruses
smiles,measurement,setting,value
COc1c(C)c2c(c(O)c1C/C=C(\C)CCC(=O)O)C(=O)OC2 [Mycophenolic acid],EC50,[1],0.8 µM
same,EC50,[2],0.7 µM
same,CC50,in vitro [3],> 100 µM
same,CC50,in vitro [4],> 100 µM
same,CC50,in vitro [5],> 100 µM
NC(=O)c1ncn([C@@H]2O[C@H](CO)[C@@H](O)[C@H]2O)n1 [Ribavirin],EC50,[2],119 µM
same,CC50,in vitro [3],> 250 µM
same,EC50,[6],5 µM
same,EC50,[7],6.4 µM
same,EC50,[8],7 µM
same,CC50,in vitro [4],> 250 µM
same,EC50,[9],7.2 µM
same,CC50,in vitro [5],> 250 µM
CCCCCCCCCCOCc1cn(CCOCCOCCOCCOCc2cn(C3C(=O)NC(CC(N)=O)C(=O)NC4C(=O)NC5C(=O)NC(C(=O)NC(C(=O)O)c6cc(O)cc(O)c6-c6cc5ccc6O)C(O)c5ccc(c(Cl)c5)Oc5cc4cc(c5O)Oc4ccc(cc4Cl)C3O)nn2)nn1 (stereo not drawn) [Compound 6],MIC,S. epidermidis mecA,32 µg/mL
same,MIC,[10],32 µg/mL
same,MIC,[11],128 µg/mL
same,coronavirus 229E-induced cytopathicity observed microscopically,human coronavirus 229E [12],no coronavirus 229E-induced cytopathicity could be observed microscopically
same,MIC,[13],128 µg/mL
same,CC50,MDCK cells,41 µM
same,MIC,B. subtilis ATCC 6633,32 µg/mL
same,MIC,E. faecalis ATCC 29212,32 µg/mL
same,CC50,[14],> 100 µM
same,reduction of the viral RNA copy number in the supernatant,human coronavirus 229E [15]; 25 µM compound,1000 fold
same,EC99 value for reduction of virus yield,human coronavirus 229E [15]; RT-qPCR of supernatant,20 µM
same,MIC,"E. faecalis 15,376 VanA",128 µg/mL
same,MIC,[16],128 µg/mL
same,CC50,[17],> 100 µM
same,virus-induced cytopathic effect (CPE) upon microscopic inspection,A/PR/8/34 virus,no virus-induced cytopathic effect (CPE) was observed
same,CC50,[18],> 100 µM
same,anti-influenza virus activity (in words),influenza A or B viruses,robust activity
